Here are results for 29 molecules from the SangsterLogP compilation.

This data set can be described thus: method code SF-AS, from DOI: 10.1021/acs.jmedchem.6b01691, PMID: 28051859.

Take `FC(F)Oc1cccc(C(F)(F)F)c1`: the logP (as a rule, a log measure of how a compound divides between an organic and an aqueous phase) is 2.69. The value for `CSc1ccccc1` was 2.6; that for `FC(F)Oc1ccc(C(F)(F)F)cc1` was 2.76. Next, `COc1cccc(C(F)(F)F)c1`: 2.79; `Cc1ccc(SC(F)F)cc1`: 3.41. As to `FC(F)Sc1ccccc1`, the logP amounted to 2.89. The value for `FC(F)Sc1ccc(Br)cc1` was 2.96. Next, `COc1ccc(C)cc1`: 2.56; `COc1ccc(SC)cc1`: 2.66. The value for `COc1ccc(OC(F)F)cc1` was 2.35; that for `CSc1ccc([N+](=O)[O-])cc1` was 2.64; that for `COc1ccc(C(F)(F)F)cc1` was 2.87. `COc1ccc(C(=O)c2ccccc2)cc1` yielded a logP of 2.69.

`CC(=O)Nc1ccc(SC(F)F)cc1`: the logP is 2.42. Next, `Cc1ccc(OC(F)F)cc1`: 2.88.

For `CSc1ccc(Cl)cc1`, the logP worked out at 3.01. Next, `CSc1ccc(Br)cc1`: 2.78. As for `CSc1ccc(C)cc1`, the logP is 3.01. Next, `O=[N+]([O-])c1ccc(SC(F)F)cc1`: 2.54.

`FC(F)Sc1ccc(Cl)cc1` had a log partition coefficient (logP) of 3.24. Next, `Fc1cccc(OC(F)F)c1`: 2.59; `CSc1ccc(F)cc1`: 2.77; `COc1cccc(F)c1`: 2.43.

For the molecule `COc1ccc(SC(F)F)cc1`, the logP came to 3.11.

`Fc1ccc(SC(F)F)cc1`: the logP was found to be 2.92. The value for `Fc1ccc(OC(F)F)cc1` was 2.47; that for `O=[N+]([O-])c1ccc(OC(F)F)cc1` was 1.98; that for `COc1ccc(F)cc1` was 2.14. The value for `Cc1cccc(OC(F)F)c1` was 2.87.
